Results from PMC11659602, “Discovering covalent cyclic peptide inhibitors of peptidyl arginine deiminase 4 (PADI4) using mRNA-display with a genetically encoded electrophilic warhead” (Communications Chemistry, 2024).
“And” between values parts separate entries of the source, which are not always exact repeats. Equal values may be shown once. Read-outs that look alike come from different tables or passages of the source. *1 amine or outer side, *2 acyl side, *3 side chain or, on linkers, in order; H or OH if unused. Where a SMILES comes first, the peptide text is derived from it. Bridges are numbered along the chain shown (N, C = ends). [ ]: non-standard residue; d: D form. Orn(fluoroacetimidoyl) = N=C(CF)NCCC[C@H](N)C(=O)O; Orn(acetimidoyl) = CC(=N)NCCC[C@H](N)C(=O)O; X1 = N=C(CCl)NCCC[C@H](N[*:1])C(=O)[*:2]; Cit = NC(=O)NCCC[C@H](N)C(=O)O

How the values were obtained:
PADI4 [1] = target: T1, PADI4 (Homo sapiens, UniProt Q9UM07); assay: COLDER inhibition assay, BAEE substrate, with or without 1 h preincubation; format: biochemical; details: for IC50: COLDER; for remaining activity at 0.3 µM: peptide 0.3 µM; for remaining activity at 0.003 µM: peptide 0.003 µM; for remaining activity at 0.03 µM: peptide 0.03 µM; for remaining activity at 0.1 µM: peptide 0.1 µM; for remaining activity at 3 µM: peptide 3 µM; for remaining activity at 10 µM: peptide 10 µM; for remaining activity at 30 µM: peptide 30 µM; for remaining activity at 50 µM: peptide 50 µM; for remaining activity at 0.01 µM: peptide 0.01 µM; for remaining activity at 1 µM: peptide 1 µM
T1 construct: His6; made in house
Method: PADI4 citrullination activity was analysed using the COLDER assay in 96-well plates. Peptide dilutions were prepared from a 500 µM stock, to give a 10 times concentrated dilution series (500 µM, 300 µM, 100 µM, 30 µM, 10 µM, 3 µM, 1 µM, 0.3 µM, 0.1 µM and 0.03 µM) in COLDER buffer (50 mM HEPES, 150 mM NaCl and 2 mM DTT, pH 7.5) containing 1% DMSO. In triplicate, each was diluted 10-fold further when mixed with 50 nM His-PADI4, 0.6 mg/mL BSA and 10 mM CaCl2, in COLDER buffer. With or without one hour of incubation, 10 mM N^α-Benzoyl-L-arginine ethyl ester hydrochloride (BAEE, Merck) was added to initiate the reaction (50 µL final volume). After 30 min at rt, EDTA (50 mM final concentration) was used to quench the reaction and 200 µL of COLDER solution containing 20 mM Diacetyl monoxime/2,3-butanedione monoxime (Merck), 0.5 mM Thiosemicarbazide (Acros Organics), 2.25 M H3PO4, 4.5 M H2SO4 and 1.5 mM NH4Fe(SO4)2.12H2O was added to each well. Samples were incubated for 20 min at 95 °C before measuring absorbance at 540 nm on a CLARIOstar Plus (BMG LABTECH). Data analysis was performed with GraphPad Prism. Data are presented as the average ± standard error of the mean from at least two independent replicates.

PADI4 [2] = target: T1, PADI4; assay: Surface plasmon resonance (SPR), single cycle kinetics; format: binding; details: for Kd: reversible binding, 1:1 binding model; for Ki: k-1/k+1
Method: S8. Surface plasmon resonance (SPR)
Using a Biacore S200 (GE Healthcare), biotinylated His-PADI4 (80 nM) was immobilised on a CAP chip (GE Healthcare) to a response unit of approx. 3000. At 25 °C, single cycle kinetics mode was used with 5 samples of a 3-fold dilution series of peptides PADI4_3_H4(2), cP4_2, […]
mM HEPES, 150 mM NaCl, 10 mM CaCl2, 0.05% Tween-20, 0.1% DMSO (pH 7.5). After each cycle, regeneration of the chip was carried out as per the manufacturer’s protocol. Data were analysed with the Biacore S200 Evaluation Software, each in triplicate. Warhead-containing peptides were analysed using the two-state reaction model, with the rate constant for the reverse second step (k-2) set to zero. The equilibrium constant of the reversible binding step, Ki, was calculated as the ratio of k-1/k+1 and the rate constant of the irreversible chemical step, kinact, as k+2. The Arg4, Cit4 and Me4 peptides were fitted using a 1:1 binding model. […]

[3] = no preincubation of peptide and PADI4, 10 mM CaCl2, read-out: IC50 Values 0 h preincubation
[4] = no preincubation, read-out: PADI4 activity, normalised (Figure 4b dose-response)
[5] = 1 h preincubation of peptide and PADI4, 10 mM CaCl2, read-out: IC50 Values 1 h preincubation
[6] = two-state reaction model, k+2, read-out: SPR kinact (converted)
[7] = T=0, values starred, read-out: PADI4 activity normalised to 0.1% DMSO
[8] = T=0, read-out: PADI4 activity normalised to 0.1% DMSO
[9] = T=1, read-out: PADI4 activity normalised to 0.1% DMSO

T1 sequence (Q9UM07 whole entry): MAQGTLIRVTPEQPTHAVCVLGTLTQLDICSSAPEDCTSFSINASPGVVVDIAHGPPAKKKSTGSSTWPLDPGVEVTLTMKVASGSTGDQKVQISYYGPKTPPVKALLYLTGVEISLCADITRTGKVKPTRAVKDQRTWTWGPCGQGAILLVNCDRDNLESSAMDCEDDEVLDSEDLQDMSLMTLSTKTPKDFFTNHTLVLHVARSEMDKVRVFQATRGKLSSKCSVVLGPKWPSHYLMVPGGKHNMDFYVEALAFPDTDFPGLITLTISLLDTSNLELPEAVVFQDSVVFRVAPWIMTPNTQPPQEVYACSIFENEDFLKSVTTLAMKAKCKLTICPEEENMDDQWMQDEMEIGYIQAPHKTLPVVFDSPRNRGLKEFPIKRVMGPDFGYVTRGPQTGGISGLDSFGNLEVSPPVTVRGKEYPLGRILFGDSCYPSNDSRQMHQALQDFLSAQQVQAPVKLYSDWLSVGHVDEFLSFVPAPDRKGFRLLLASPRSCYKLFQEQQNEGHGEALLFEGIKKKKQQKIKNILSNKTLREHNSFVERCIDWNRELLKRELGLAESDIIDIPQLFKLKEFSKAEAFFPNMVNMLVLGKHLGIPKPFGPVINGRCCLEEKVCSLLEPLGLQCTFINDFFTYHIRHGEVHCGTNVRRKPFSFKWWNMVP

Row | SMILES | IC50 (PADI4 [1]; [3]) [µM] | remaining activity at 0.3 µM (PADI4 [1]; [4]) [%] | Kd (PADI4 [2]) [µM] | remaining activity at 0.003 µM (PADI4 [1]; [4]) [%] | remaining activity at 0.03 µM (PADI4 [1]; [4]) [%] | remaining activity at 0.1 µM (PADI4 [1]; [4]) [%] | remaining activity at 3 µM (PADI4 [1]; [4]) [%] | remaining activity at 10 µM (PADI4 [1]; [4]) [%] | remaining activity at 30 µM (PADI4 [1]; [4]) [%] | remaining activity at 50 µM (PADI4 [1]; [4]) [%] | IC50 (PADI4 [1]; [5]) [µM] | remaining activity at 0.01 µM (PADI4 [1]; [4]) [%] | remaining activity at 1 µM (PADI4 [1]; [4]) [%] | kinact/KI (PADI4 [2]) [M⁻¹ s⁻¹] | kinact (PADI4 [2]; [6]) [s⁻¹] | Ki (PADI4 [2]; two-state reaction model) [µM] | further results
1 | N=C(N)NCCC[C@@H]1NC(=O)[C@H](CCCNC(=N)CCl)NC(=O)[C@H](CC(=O)O)NC(=O)[C@H](Cc2ccc(O)cc2)NC(=O)[C@H](CCCCN)NC(=O)[C@H](CO)NC(=O)[C@@H](Cc2ccc(O)cc2)NC(=O)CSC[C@@H](C(=O)NCC(N)=O)NC(=O)[C@H](CC(=O)O)NC(=O)[C@H](CCCNC(=N)N)NC(=O)[C@@H]2CCCN2C(=O)[C@H](CO)NC1=O [Cl4] ({CH2CO}-[dY]SKYD[X1]RSPRDCG-NH2; thioether N-12) | 8.2 ± 0.8 | 86.6 |  |  | 90.5 | 86.7 |  | 34.1 | 12.5 | 6.56 | 0.066 ± 0.009 | 85.9 | 82.4 | 1170 | 0.00467 | 4 ± 0.2 | remaining activity at 0.1 µM (PADI4 [1]; 1 h, T = 1 h preincubation, read-out: PADI4 activity, normalised (Figure 4b dose-response)): 27.3%
2 | CC(=N)NCCC[C@@H]1NC(=O)[C@H](CC(=O)O)NC(=O)[C@H](Cc2ccc(O)cc2)NC(=O)[C@H](CCCCN)NC(=O)[C@H](CO)NC(=O)[C@@H](Cc2ccc(O)cc2)NC(=O)CSC[C@@H](C(=O)NCC(N)=O)NC(=O)[C@H](CC(=O)O)NC(=O)[C@H](CCCNC(=N)N)NC(=O)[C@@H]2CCCN2C(=O)[C@H](CO)NC(=O)[C@H](CCCNC(=N)N)NC1=O [Me4] ({CH2CO}-[dY]SKYD[Orn(acetimidoyl)]RSPRDCG-NH2; thioether N-12) | > 20 | 93.7 | 1.7 ± 0.4 | 91 | 96.4 | 92.1 | 84.6 |  | 41.5 | 25.9 |  | 92.6 | 86.6 |  |  |  | 
3 | CC[C@H](C)[C@@H]1NC(=O)[C@@H](Cc2ccc(O)cc2)NC(=O)CSC[C@@H](C(=O)NCC(N)=O)NC(=O)[C@H](CO)NC(=O)[C@H](CCCNC(=N)CF)NC(=O)[C@H](CC(=O)O)NC(=O)[C@H](CCCNC(=N)CF)NC(=O)[C@H](CC(C)C)NC(=O)CNC(=O)[C@H](Cc2c[nH]c3ccccc23)NC1=O [cP4_2, yIWGL(2)D(2)SCG] ({CH2CO}-[dY]IWGL[Orn(fluoroacetimidoyl)]D[Orn(fluoroacetimidoyl)]SCG-NH2; thioether N-10) | > 50 |  |  |  |  |  |  |  |  |  | 0.87 ± 0.06 |  |  | 1530 | 0.002 | 1.3 ± 0.5 | remaining activity at 0.003 µM (PADI4 [1]; [7]): 107%; remaining activity at 0.01 µM (PADI4 [1]; [7]): 107%; remaining activity at 0.03 µM (PADI4 [1]; [8]): 107%; remaining activity at 0.1 µM (PADI4 [1]; [8]): 108%; remaining activity at 0.1 µM (PADI4 [1]; [9]): 93.3%; remaining activity at 0.3 µM (PADI4 [1]; [8]): 106%; remaining activity at 0.3 µM (PADI4 [1]; [9]): 74.9%; remaining activity at 1 µM (PADI4 [1]; [8]): 107%; remaining activity at 1 µM (PADI4 [1]; [9]): 42.9%; remaining activity at 3 µM (PADI4 [1]; [8]): 105%; remaining activity at 3 µM (PADI4 [1]; [9]): 7.63%; remaining activity at 10 µM (PADI4 [1]; [8]): 101%; remaining activity at 10 µM (PADI4 [1]; [9]): 3.92%; remaining activity at 30 µM (PADI4 [1]; [8]): 80.9%; remaining activity at 50 µM (PADI4 [1]; T=0 (no preincubation), read-out: PADI4 activity normalised to 0.1% DMSO): 64.4%; k2 / kinact (PADI4 [2]; each replicate): 0.0026 s⁻¹ and 0.0019 s⁻¹; kinact (PADI4 [2]; each replicate, read-out: k2 / kinact): 0.0014 s⁻¹

Further lines, with some results ahead:

Row | IC50 (PADI4 [1]; [3]) [µM] | remaining activity at 0.3 µM (PADI4 [1]; [4]) [%] | Kd (PADI4 [2]) [µM] | remaining activity at 0.003 µM (PADI4 [1]; [4]) [%] | remaining activity at 0.03 µM (PADI4 [1]; [4]) [%] | remaining activity at 0.1 µM (PADI4 [1]; [4]) [%] | remaining activity at 3 µM (PADI4 [1]; [4]) [%] | remaining activity at 10 µM (PADI4 [1]; [4]) [%] | remaining activity at 30 µM (PADI4 [1]; [4]) [%] | remaining activity at 50 µM (PADI4 [1]; [4]) [%] | IC50 (PADI4 [1]; [5]) [µM] | remaining activity at 0.01 µM (PADI4 [1]; [4]) [%] | remaining activity at 1 µM (PADI4 [1]; [4]) [%] | kinact/KI (PADI4 [2]) [M⁻¹ s⁻¹] | kinact (PADI4 [2]; [6]) [s⁻¹] | Ki (PADI4 [2]; two-state reaction model) [µM] | SMILES | further results
4 | > 100 | 101 | 2 ± 0.2 |  |  |  |  |  |  |  |  |  |  |  |  |  | N=C(N)NCCC[C@@H]1NC(=O)[C@H](CC(=O)O)NC(=O)[C@H](Cc2ccc(O)cc2)NC(=O)[C@H](CCCCN)NC(=O)[C@H](CO)NC(=O)[C@@H](Cc2ccc(O)cc2)NC(=O)CSC[C@@H](C(=O)NCC(N)=O)NC(=O)[C@H](CC(=O)O)NC(=O)[C@H](CCCNC(=N)N)NC(=O)[C@@H]2CCCN2C(=O)[C@H](CO)NC(=O)[C@H](CCCNC(=N)N)NC1=O [Arg4] ({CH2CO}-[dY]SKYDRRSPRDCG-NH2; thioether N-12) | 
5 | > 100 | 103 | > 10 | 96.7 | 95.6 | 99.7 | 101 | 108 | 103 | 107 |  |  |  |  |  |  | N=C(N)NCCC[C@@H]1NC(=O)[C@H](CCCNC(N)=O)NC(=O)[C@H](CC(=O)O)NC(=O)[C@H](Cc2ccc(O)cc2)NC(=O)[C@H](CCCCN)NC(=O)[C@H](CO)NC(=O)[C@@H](Cc2ccc(O)cc2)NC(=O)CSC[C@@H](C(=O)NCC(N)=O)NC(=O)[C@H](CC(=O)O)NC(=O)[C@H](CCCNC(=N)N)NC(=O)[C@@H]2CCCN2C(=O)[C@H](CO)NC1=O [Cit4] ({CH2CO}-[dY]SKYD[Cit]RSPRDCG-NH2; thioether N-12) | 
